This note sets out measurements from patent US7531482B2, “Thieno-pyrimidine compounds having fungicidal activity” (Dow AgroSciences LLC, priority 2005, dated 2009).

Holding throughout (assay type): in vivo
Assay [1] deals with Puccinia recondita tritici. The experiment in a line: Leaf Rust of Wheat (PUCCRT) whole-plant disease control test. The following applies: 200 ppm applied to foliage of wheat, inoculated one day after treatment; for pest or weed control at 200 ppm: Puccinia recondita, foliar, read-out: PUCCRT disease control.
A further assay deals with Phytophthora infestans. Kind of assay: whole plant or invertebrate. The following applies: inoculated one day after treatment; for pest or weed control at 200 ppm: Phytophthora infestans, in Solanum lycopersicum, foliar, read-out: PHYTIN disease control, 200 ppm applied to foliage of tomato.
Assay [2] relates to Magnaporthe grisea=Pyricularia oryzae. Kind of assay: whole plant or invertebrate. As to conditions: for pest or weed control at 8.3 ppm / pest or weed control at 200 ppm: Pyricularia oryzae, foliar; for pest or weed control at 8.3 ppm: read-out: PYRIOR disease control, 8.3 ppm (footnote c), rice foliage; for pest or weed control at 200 ppm: read-out: PYRIOR disease control, 200 ppm applied to foliage of rice.

In another assay the test system is Erysiphe cichoracaerum. Kind of assay: Cucumber Powdery Mildew (ERYSCI) whole-plant disease control test. The following applies: Erysiphe, foliar; 200 ppm applied to foliage of cucumber; inoculated one day after treatment; read-out: ERYSCI disease control.
Assay [3] deals with Mycosphaerella graminicola=Septoria tritici. The experiment in a line: Speckled Leaf Blotch of Wheat (SEPTTR) whole-plant disease control test. The following applies: 75 ppm applied to foliage of wheat; for pest or weed control at 75 ppm: Mycosphaerella, foliar, read-out: SEPTTR disease control.
The next assay deals with Colletotricum lagenarium. Kind of assay: Cucumber Anthracnose (COLLLA) whole-plant disease control test. As to conditions: Cucumis sativus, foliar; 200 ppm applied to foliage of cucumber; inoculated one day after treatment; read-out: COLLLA disease control.
For a further assay, the system named is Leptosphaeria nodorum. Kind of assay: Glume Blotch of Wheat (LEPTNO) whole-plant disease control test. The following applies: Parastagonospora nodorum, foliar; for pest or weed control at 200 ppm: 200 ppm applied to foliage of wheat, inoculated one day after treatment, read-out: LEPTNO disease control; for pest or weed control at 75 ppm: 75 ppm (footnote b), wheat foliage.

[4] abbreviates: inoculated one day after treatment.

Molecules are shown by their SMILES.

Turning to `Clc1csc2ncnc(NCCc3ccc(Oc4ncnc5scc(Cl)c45)cc3)c12` [Compound 108], the PUCCRT disease control entry in assay [1] is listed as “* (* = 0–49 percent control)”. In addition, the PHYTIN disease control entry in the assay with Phytophthora infestans (200 ppm applied to foliage of tomato) is reported as “* (* = 0–49 percent control)”. The PYRIOR disease control entry in assay [2] (200 ppm applied to foliage of rice, inoculated one day after treatment) is “** (** = 50–79 percent control)”. The pest or weed control at 200 ppm with Erysiphe cichoracaerum, with Colletotricum lagenarium and in the assay with Leptosphaeria nodorum was 0 to 49% in each case. Also, the SEPTTR disease control entry in assay [3] is “** (** = 50–79 percent control)”.

For the compound `Fc1nc(F)c(F)c(Oc2ccc(CCNc3ncnc4scc(Cl)c34)cc2)c1F` [Compound 110], the pest or weed control at 200 ppm in assay [1] was 80 to 100%; in the assay with Phytophthora infestans, 0 to 49%; in the assay with Erysiphe cichoracaerum, 80 to 100%; with Colletotricum lagenarium, 50 to 79%. For the same compound, the pest or weed control at 8.3 ppm in assay [2] is 80 to 100%. The pest or weed control at 75 ppm (in assay [3]; in the assay with Leptosphaeria nodorum) was 50 to 79% in each case.

Turning to `Clc1csc2ncnc(NCCc3ccc(Oc4nc(Br)ns4)cc3)c12` [Compound 112], the pest or weed control at 200 ppm was in the range of 80 to 100% in assay [1]; 50 to 79% with Phytophthora infestans; 80 to 100% in assay [2] (setting [4]); 0 to 49% in the assay with Erysiphe cichoracaerum; 50 to 79% in the assay on Colletotricum lagenarium; 0 to 49% in the assay on Leptosphaeria nodorum. Moreover, the pest or weed control at 75 ppm in assay [3] lay in the range of 0 to 49%.

For the compound `Cc1nnsc1Oc1ccc(CCNc2ncnc3scc(Cl)c23)cc1` [Compound 114], the pest or weed control at 200 ppm in assay [1] fell in the range of 80 to 100%; in the assay with Phytophthora infestans it was 80 to 100%; in assay [2] (setting [4]) it was 80 to 100%; in the assay with Erysiphe cichoracaerum it was 80 to 100%; in the assay with Colletotricum lagenarium, 50 to 79%; with Leptosphaeria nodorum it was 50 to 79%. Further, the pest or weed control at 75 ppm in assay [3] lay within 50 to 79%.

Take `Clc1nsc(Oc2ccc(CCNc3ncnc4scc(Cl)c34)cc2)n1` [Compound 120]: the pest or weed control at 200 ppm in assay [1] was 80 to 100%; in the assay with Phytophthora infestans, 50 to 79%; with Erysiphe cichoracaerum, 0 to 49%; in the assay on Colletotricum lagenarium, 0 to 49%. Moreover, the pest or weed control at 8.3 ppm in assay [2] fell in the range of 50 to 79%. Moreover, the pest or weed control at 75 ppm (in assay [3]; with Leptosphaeria nodorum) was 0 to 49% in each case.

Regarding `COc1nsc(Oc2ccc(CCNc3ncnc4scc(Cl)c34)cc2)n1` [Compound 122], the pest or weed control at 200 ppm was in the range of 80 to 100% in assay [1], 50 to 79% in the assay with Phytophthora infestans, 80 to 100% in the assay on Erysiphe cichoracaerum and 50 to 79% with Colletotricum lagenarium. The pest or weed control at 8.3 ppm in assay [2] lay within 80 to 100%. The pest or weed control at 75 ppm is 50 to 79% in assay [3] and 0 to 49% in the assay on Leptosphaeria nodorum.

On to `COc1cc(CCNc2ncnc3scc(Cl)c23)ccc1Oc1cc(C(F)(F)F)ccn1` [Compound 124, (5-Chlorothieno[2,3-d]pyrimidin-4-yl)-{2-[3-methoxy-4-(4-trifluoromethylpyridin-2-yloxy)phenyl]ethyl}amine], for which the pest or weed control at 200 ppm in assay [1] lay within 80 to 100%; in the assay with Phytophthora infestans, 50 to 79%; with Erysiphe cichoracaerum it was 80 to 100%; with Colletotricum lagenarium, 50 to 79%. Besides, in assay [2], the pest or weed control at 8.3 ppm is 80 to 100%. Besides, the pest or weed control at 75 ppm (in assay [3]; in the assay with Leptosphaeria nodorum) was 0 to 49% throughout.

With `N#Cc1nccnc1Oc1ccc(CCNc2ncnc3scc(Cl)c23)cc1` [Compound 125], the pest or weed control at 200 ppm in assay [1] lay within 80 to 100%; with Phytophthora infestans, 50 to 79%; in the assay on Erysiphe cichoracaerum it was 50 to 79%; with Colletotricum lagenarium it was 0 to 49%. Also, the pest or weed control at 8.3 ppm in assay [2] was 80 to 100%. Further, the pest or weed control at 75 ppm in assay [3] lay within 50 to 79%; in the assay with Leptosphaeria nodorum, 0 to 49%.
